Laboratory results reported in patent US6051718A, “PDE IV inhibiting 2-cyanoiminoimidazole derivatives” (Janssen Pharmaceutica, N.V., priority 1996, dated 2000).

Target: T1, recombinant human MNL phosphodiesterase PDE IV B (Homo sapiens, UniProt Q07343)
T1 construct: made in house
Test: Inhibition of recombinant human mononuclear lymphocyte (MNL) phosphodiesterase type IV B produced in insect cells with a baculovirus vector
Type: biochemical
Settings: 3H-cAMP 0.8 μM, 10 minutes, 37° C., pH 8, DMSO 1%
Experimental: Example C.1: Inhibition of Recombinant Human Mononuclear Lymphocyte (MNL) Phosphodiesterase Type IV B Produced in Insect Cells with a Baculovirus Vector
The alleviating and/or curing effect of the instant compounds on allergic and atopic diseases was assessed by an in vitro assay system to detect an inhibiting effect on the recombinant human MNL phosphodiesterase type IV B.
Seventy-two hours after infection with recombinant baculovirus, the insect cells were harvested and pelleted at 500 g for 5 minutes. The cells were lysed in 10 ml lysis-buffer consisting of 20 mM Tris, 10 mM EGTA, 2 mM Na2 EDTA, 1% Triton-X-100, 1 mM Na3 VO4, 10 mM NaF, 2 μg/ml of leupeptine, pepstatine and aprotinine, 0.3 μg/ml benzamidine and 100 μg/ml TPCK pH 7.5. After 5 minutes on ice, solubilized cells were centrifuged at 4000 rpm for 15 minutes at 4° C. The resulting supernatant was filtered through a 0.45 μm filter (Millipore) and brought to TBS buffer (50 mM Tris, 150 mM NaCl pH 7.4).
After washing the column with equilibration buffer, PDE IV was eluted in 1.5 ml fractions containing 37.5 μl 1M Tris pH 8. The fractions were dialyzed overnight against 20 mM Tris, 2 mM Na2 EDTA and 400 mM NaCl pH 7.5 and tested for PDE IV activity. Indentification was done on SDS PAGE and Western Blot (anti-FLAG-M2). Active fractions were pooled, brought to 10% glycerol and stored at -70° C.
The incubation mixture (pH 8) (200 μl) contained 20 mM Tris, 10 mM magnesium sulphate, 0.8 μM ^3 H-cAMP (310 mCi/mmole) and the phosphodiesterase type IV, the amount depending on the enzymatic activity. […] When the effect of different compounds on phosphodiesterase activity was tested, the medium without cAMP was incubated with the compound(s) or its carrier (DMSO-1% final concentration) for 5 minutes. […] After cooling to room temperature, alkaline phosphatase (0.25 μg/ml) was added and the mixture was incubated at 37° C. for 20 min. 100 μl of the mixture was subsequently applied to a GF-B filter-microtiter-plate (Millipore) filled with 300 μl DEAE-Sephadex-A25 suspension. The plate was washed 3 times with 75 μl 20 mM Tris pH 7.5 and the filtrates were collected for counting in the Packard Top Count scintillation counter.
The inhibiting effect of the present compounds on recombinant human MNL phosphodiesterase PDE IV B was measured at different concentrations of the instant compounds.

T1 sequence (Q07343 whole entry): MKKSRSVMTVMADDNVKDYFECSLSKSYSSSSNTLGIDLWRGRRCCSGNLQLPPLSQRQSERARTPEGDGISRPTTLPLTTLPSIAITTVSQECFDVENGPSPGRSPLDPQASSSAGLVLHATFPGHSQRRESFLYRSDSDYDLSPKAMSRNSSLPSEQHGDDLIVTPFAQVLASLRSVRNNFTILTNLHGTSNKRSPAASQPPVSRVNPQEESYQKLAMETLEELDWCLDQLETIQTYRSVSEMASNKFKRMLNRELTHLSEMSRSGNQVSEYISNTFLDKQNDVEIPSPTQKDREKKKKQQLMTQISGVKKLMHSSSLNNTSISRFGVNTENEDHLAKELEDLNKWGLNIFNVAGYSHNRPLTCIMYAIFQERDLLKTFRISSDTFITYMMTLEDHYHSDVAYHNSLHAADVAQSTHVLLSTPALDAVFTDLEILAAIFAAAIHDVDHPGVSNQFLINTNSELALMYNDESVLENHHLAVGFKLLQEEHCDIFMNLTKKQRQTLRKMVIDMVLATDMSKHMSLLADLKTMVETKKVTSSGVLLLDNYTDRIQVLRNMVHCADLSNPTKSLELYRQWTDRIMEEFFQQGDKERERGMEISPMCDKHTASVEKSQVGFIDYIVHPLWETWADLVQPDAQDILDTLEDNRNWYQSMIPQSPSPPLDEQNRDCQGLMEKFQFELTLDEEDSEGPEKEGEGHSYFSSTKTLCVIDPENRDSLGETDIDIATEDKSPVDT

Row | IC50 | Compound
1 | 33.5 nM | COc1ccc(C(C)Cn2ccnc2NC#N)cc1OCC1CC1 (single isomer, unassigned) [Compound 15]
2 | 22.2 nM | COc1ccc(C(C)Cn2ccnc2NC#N)cc1OC1CCCC1 (single isomer, unassigned) [Compound 13]
3 | 32.7 nM | CC(Cn1ccnc1NC#N)c1ccc(OC(F)F)c(OCCCCCc2ccccc2)c1 (centres unmarked) [Compound 11]
4 | 330 nM | COc1ccc(C(C)CN2CCNC2=NC#N)cc1OC1CCCC1 (racemic) [Compound 1, (±)-[1-[2-[3-(cyclopentyloxy)-4-methoxyphenyl]propyl]-2-imidazolidinylidene] cyanamide]
5 | 27.2 nM | COc1ccc(C(C)Cn2ccnc2NC#N)cc1OCC1CC1 (single isomer, unassigned) [Compound 14]
6 | 56.5 nM | COc1ccc(C(C)Cn2cc[nH]c2=NC#N)cc1OCC1CC1 (centres unmarked) [Compound 8]
7 | 22.4 nM | CC(Cn1cc[nH]c1=NC#N)c1ccc(OC(F)F)c(OCC2CC2)c1 (centres unmarked) [Compound 6]
8 | 196 nM | COc1ccc(C(C)Cn2cc[nH]c2=NC#N)cc1OC1CCOC1 (centres unmarked) [Compound 10]
9 | 30 nM | COc1ccc(C(C)Cn2cc[nH]c2=NC#N)cc1OC1CCCC1 (centres unmarked) [Compound 3]
10 | 76.5 nM | COc1ccc(CCn2cc[nH]c2=NC#N)cc1OC1Cc2ccccc2C1 [Compound 20]
11 | 26.6 nM | N#CN=c1[nH]ccn1CCc1ccc(OC(F)F)c(OC2CCCC2)c1 [Compound 5]
12 | 21.9 nM | COc1ccc(C(C)Cn2ccnc2NC#N)cc1OC1CCCC1 (single isomer, unassigned) [Compound 12]
13 | 37.5 nM | COc1ccc(C(C)Cn2ccnc2NC#N)cc1OCCCCCc1ccccc1 (single isomer, unassigned) [Compound 19]
14 | 15.3 nM | CC(Cn1cc[nH]c1=NC#N)c1ccc(OC(F)F)c(OC2CCCC2)c1 (centres unmarked) [Compound 4]
15 | 100 nM | CC(Cn1cc[nH]c1=NC#N)c1ccc(OC(F)F)c(OC2CCOC2)c1 (racemic) [Compound 2, (±)-[1-[2-[4-(difluoromethoxy)-3-[(tetrahydro-3-furanyl)oxy]phenyl]-propyl]-1,3-dihydro-2H-imidazol-2-ylidene]cyanamide]
16 | 36.1 nM | COc1ccc(C(C)Cn2cc[nH]c2=NC#N)cc1OCCCCCc1ccccc1 (centres unmarked) [Compound 9]
17 | 40.9 nM | COc1ccc(C(C)Cn2ccnc2NC#N)cc1OCCCCCc1ccccc1 (single isomer, unassigned) [Compound 18]
